Patent publication US20260207606A1, “DOSING SCHEDULE OF A SOLID DISPERSION OF A HER2 INHIBITOR” (Boehringer Ingelheim International GmbH, priority 2022, published 2026)

How the values were obtained:
NSCLC = test: Phase Ia dose escalation trial: tumour response according to RECIST v1.1 in NSCLC patients; type: in vivo, human; settings: for Best overall response (RECIST 1.1): Partial response, % / Best overall response (RECIST 1.1): Progressive disease, % / Best overall response (RECIST 1.1): Stable disease, % / Best overall response (RECIST 1.1): Complete response, % / Best overall response (RECIST 1.1): Non-CR/Non-PD, % / Best overall response (RECIST 1.1): Not evaluable, %: regardless of confirmation, data lock 16 Mar. 2023
From the text: Tumour assessments should include computed tomography (CT) scans of the chest, abdomen/pelvis (or PET/CT) and a brain MRI at screening. If clinically indicated, imaging of any other known or suspected sites of disease (e.g. bone) using an appropriate method (CT scan, MRI, PET/CT, or bone scan) should be performed. The same radiographic procedure must be used throughout the trial. Assessments will be performed by the investigator at screening (≤28 days prior to initiation of treatment), every 2 cycles (6 weeks ±5 days), at the end-of-treatment (EOT) visit (if not performed within the previous 3 weeks), and at the discretion of the investigator, and copies may be collected by the sponsor or designee. Wherever possible the assessment schedule should not be changed, but if there is an interruption or delay to treatment, alteration of the tumour assessment schedule to align with clinical assessments is allowed. Additional unscheduled tumour assessments may be performed at the discretion of the investigator. If the patient stops trial medication for a reason other than progression, tumour assessment according to RECIST v1.1 continues until progression (or until one of the following occurs; death, lost to follow-up, end of the trial).
Tumour response is evaluated according to RECIST Version 1.1 (Eisenhauer E A, Therasse P, Bogaerts J, Schwartz L H, Sargent D, Ford R, et al. New response evaluation criteria in solid tumours: revised RECIST guideline (version 1.1). Eur J Cancer. 2009; 45:228-247). RECIST 1.1 is used for a) whole-body assessment (classical RECIST 1.1) and b) the tumour assessment of non-CNS areas. The assessment according to classical RECIST 1.1 by the investigator and/or the local radiologist is the basis for continuation or discontinuation of the trial in an individual patient (in addition to safety). No whole-body RECIST assessment is performed in the dose escalation part.

[1] = Phase Ia dose escalation trial: pharmacokinetics, plasma exposure; type: in vivo; settings: increasing doses, BID and QD
Protocol: Pharmacokinetic (PK) profiles of compound (1) are investigated after the first and after repeated doses. Standard PK parameters are calculated, if data allows and if scientifically reasonable. […] Statistical analyses are performed.
If deemed necessary, further PK parameters might be used for these assessments.
Preliminary PK analyses can be performed as necessary for DEC decisions. The final preliminary analysis are performed at the end of the dose escalation part prior to proceeding to the dose expansion part. In contrast to the final PK analysis, the preliminary analyses are based on planned sampling times rather than on actual times; no supplementary patient information, e.g. on AEs or concomitant medication, is used in these analyses, and the outputs are not validated. Minor discrepancies between preliminary and final results may therefore occur.

[2] = tested on: patients with HER2 mutation positive advanced/metastatic NSCLC; test: Phase Ib dose expansion, Cohort 1: safety (treatment related adverse events); type: in vivo, human; settings: 120/240 mg QD, 42 patients
From the text: (§1) This Example focuses on the dose expansion part (Phase Ib) of the Phase I study described in Example 8. Approximately 275 patients diagnosed with advanced or metastatic refractory NSCLC harbouring mutations in the HER2 gene are enrolled. Patients are divided into 5 cohorts according to the main inclusion criteria listed below.
(§2) The trial objectives of Phase Ib include: • For cohort 1, cohort 2, and cohort 5, assess objective tumour response rate by central independent review; • For cohort 3, assess objective tumour response rate by investigator assessment; • For all cohorts, further investigate the safety, tolerability, and PK of the investigated doses of zongertinib in patients with HER2 mutation positive advanced/metastatic NSCLC; • For all cohorts, continue evaluating safety, and patient-reported outcomes.
The main inclusion criteria include: • Patients with a confirmed diagnosis of an advanced, unresectable and/or metastatic non-haematologic malignancy with at least one measurable lesion; • Availability and willingness to provide a sample of archival formalin-fixed paraffin embedded (FFPE) tumour tissue material; • Patients must be willing to comply with the blood sampling and tumour biopsy requirements for PK, PD and biomarker analyses; • For cohort 1: Patients with documented HER2 Tyrosine Kinase Domain (TKD) mutation positive non-squamous NSCLC who had received, in the advanced/metastatic setting, at least one line of systemic therapy that includes a platinum-based combination chemotherapy; • For cohort 2: Patients with documented HER2 Tyrosine Kinase Domain (TKD) mutation positive non-squamous NSCLC who have not received any previous lines of therapy (neo or adjuvant chemo, chemoradio or radiotherapy is permitted if at least 6 months have elapsed prior to disease progression); • For cohort 3: Patients with documented HER2 Non-TKD mutation positive NSCLC, and HER2 TKD mutation positive squamous NSCLC, who had received in the advanced/metastatic setting at least one line of systemic therapy that includes a platinum-based combination chemotherapy; • Patients in these cohorts 1 to 4 must have not received prior therapy with HER2 directed antibody-drug conjugates (ADC); • For cohort 5: Patients with documented HER2 TKD mutation positive non-squamous NSCLC who had received prior therapy with HER2 directed ADC in the advanced/metastatic setting and developed disease progression during or after completing this therapy.
The treatment consists of reiterated cycles of 3 weeks as long as the patient has clinical benefit or until undue drug toxicity or withdrawal of consent, whichever occurs first.

[3] = tested on: HER2 Tyrosine Kinase Domain (TKD) mutation positive non-squamous NSCLC; test: Phase Ib dose expansion, Cohort 1: objective response and disease control (RECIST 1.1); type: in vivo, human; settings: 120/240 mg QD
From the text: as §1, §2
The primary endpoints of Phase Ib include: • For cohort 1, 2, and 5: objective response (OR) assessed by independent central review, according to Response Evaluation Criteria In Solid Tumors (RECIST) version 1.1; • For cohort 3: objective response (OR) by investigator.
For Cohort 1, 2, and 5: • Duration of objective response (DoR) according to RECIST 1.1 by central independent review; • Disease control (DC) according to RECIST 1.1 by central independent review; • Progression-free survival (PFS) according to RECIST 1.1 by central independent review; […]

[4] = 5 NSCLC patients pre-treated with trastuzumab deruxtecan, data cut-off 17 Jul. 2023
[5] = 23 evaluable patients (received 2-5 cycles at cut-off)

SMILES: C=CC(=O)NC1CCN(c2ncc3ncnc(Nc4ccc(Oc5ccc6c(c5)ncn6C)c(C)c4)c3n2)CC1 [compound (1), N-{1-[8-({3-methyl-4-[(1-methyl-1H-1,3-benzodiazol-5-yl)oxy]phenyl}amino)-[1,3]diazino[5,4-d]pyrimidin-2-yl]piperidin-4-yl}prop-2-enamide]
- Best overall response (RECIST 1.1): Partial response, % (NSCLC; 180 mg QD, 5 NSCLC patients): 20.0%
- Best overall response (RECIST 1.1): Progressive disease, % (NSCLC; 180 mg QD, 5 NSCLC patients): 0.0%
- Best overall response (RECIST 1.1): Stable disease, % (NSCLC; 180 mg QD, 5 NSCLC patients): 60.0%
- Best overall response (RECIST 1.1): Complete response, % (NSCLC; 240 mg QD, 5 NSCLC patients): 0.0%
- Best overall response (RECIST 1.1): Non-CR/Non-PD, % (NSCLC; 240 mg QD, 5 NSCLC patients): 0.0%
- Best overall response (RECIST 1.1): Not evaluable, % (NSCLC; 240 mg QD, 5 NSCLC patients): 60.0%
- Best overall response (RECIST 1.1): Partial response, % (NSCLC; 240 mg QD, 5 NSCLC patients): 40.0%
- Best overall response (RECIST 1.1): Progressive disease, % (NSCLC; 240 mg QD, 5 NSCLC patients): 0.0%
- Best overall response (RECIST 1.1): Stable disease, % (NSCLC; 240 mg QD, 5 NSCLC patients): 0.0%
- Best overall response (RECIST 1.1): Complete response, % (NSCLC; 300 mg QD, 5 NSCLC patients): 0.0%
- Best overall response (RECIST 1.1): Non-CR/Non-PD, % (NSCLC; 300 mg QD, 5 NSCLC patients): 0.0%
- Best overall response (RECIST 1.1): Not evaluable, % (NSCLC; 300 mg QD, 5 NSCLC patients): 80.0%
- Best overall response (RECIST 1.1): Partial response, % (NSCLC; 300 mg QD, 5 NSCLC patients): 0.0%
- Best overall response (RECIST 1.1): Progressive disease, % (NSCLC; 300 mg QD, 5 NSCLC patients): 0.0%
- Best overall response (RECIST 1.1): Stable disease, % (NSCLC; 300 mg QD, 5 NSCLC patients): 20.0%
- tumour shrinkage, mean (NSCLC; [4]): −22.5%
- tumour shrinkage, median (NSCLC; [4]): −16.1%
- tumour shrinkage, up to (NSCLC; [4]): −53%
- Best overall response (RECIST 1.1): Complete response, % (NSCLC; BID Total, 11 NSCLC patients): 0.0%
- Best overall response (RECIST 1.1): Non-CR/Non-PD, % (NSCLC; BID Total, 11 NSCLC patients): 0.0%
- Best overall response (RECIST 1.1): Not evaluable, % (NSCLC; BID Total, 11 NSCLC patients): 0.0%
- Best overall response (RECIST 1.1): Progressive disease, % (NSCLC; BID Total, 11 NSCLC patients): 0.0%
- Best overall response (RECIST 1.1): Stable disease, % (NSCLC; BID Total, 11 NSCLC patients): 54.5%
- Best overall response (RECIST 1.1): Complete response, % (NSCLC; QD Total, 21 NSCLC patients): 0.0%
- Best overall response (RECIST 1.1): Non-CR/Non-PD, % (NSCLC; QD Total, 21 NSCLC patients): 0.0%
- Best overall response (RECIST 1.1): Not evaluable, % (NSCLC; QD Total, 21 NSCLC patients): 38.1%
- Best overall response (RECIST 1.1): Partial response, % (NSCLC; QD Total, 21 NSCLC patients): 28.6%
- Best overall response (RECIST 1.1): Progressive disease, % (NSCLC; QD Total, 21 NSCLC patients): 4.8%
- Best overall response (RECIST 1.1): Stable disease, % (NSCLC; QD Total, 21 NSCLC patients): 28.6%
- median duration of response (Kaplan Meier estimates) (NSCLC; all treated patients with NSCLC): 6.9 months
- dose proportionality of plasma exposure [1]: no apparent deviation from dose proportional pharmacokinetics
- AEs leading to treatment discontinuation [2]: No AEs led to treatment discontinuation
- TRAE diarrhea, all grades [2]: 29%
- TRAE diarrhea, grade ≥3 [2]: 0%
- TRAE dysgeusia, all grades [2]: 10%
- TRAE dysgeusia, grade ≥3 [2]: 0%
- TRAE increased aspartate aminotransferase, all grades [2]: 10%
- TRAE increased aspartate aminotransferase, grade ≥3 [2]: 2%
- TRAE low appetite, all grades [2]: 10%
- TRAE low appetite, grade ≥3 [2]: 0%
- TRAE rash, all grades [2]: 21%
- TRAE rash, grade ≥3 [2]: 0%
- Treatment related adverse events (TRAEs), all grades ([2]; Jul. 31, 2023): 67%
- Treatment related adverse events (TRAEs), grade ≥3 ([2]; Jul. 31, 2023): 10%
- DCR [3, 5]: 91%
- ORR [3, 5]: 74%
- responding patients on treatment at data cut-off [3]: All responding patients remained on treatment
